Measured values as given in PMC10141580, “Cyclic Dichalcogenides Extend the Reach of Bioreductive Prodrugs to Harness Thiol/Disulfide Oxidoreductases: Applications to seco-Duocarmycins Targeting the Thioredoxin System” (ACS Central Science, 2023).
Where two headings read alike, the source gives them in different places.

Test system: NCI-60 standardized human tumor cell line panel
Assay: cells
Format: cell-based
[1] = cell line A549/ATCC (LC:A549/ATCC), TMI sheet
[2] = cell line BT-549 (BR:BT-549), TMI sheet
[3] = cell line CCRF-CEM (LE:CCRF-CEM), TMI sheet
[4] = cell line COLO 205 (CO:COLO 205), TMI sheet
[5] = cell line EKVX (LC:EKVX), TMI sheet
[6] = cell line HCC-2998 (CO:HCC-2998), TMI sheet
[7] = cell line HCT-15 (CO:HCT-15), TMI sheet
[8] = cell line HCT-116 (CO:HCT-116), TMI sheet
[9] = cell line HL-60(TB) (LE:HL-60(TB)), TMI sheet
[10] = cell line HOP-62 (LC:HOP-62), TMI sheet
[11] = cell line HOP-92 (LC:HOP-92), TMI sheet
[12] = cell line HT29 (CO:HT29), TMI sheet
[13] = cell line K-562 (LE:K-562), TMI sheet
[14] = cell line KM12 (CO:KM12), TMI sheet
[15] = cell line LOX IMVI (ME:LOX IMVI), TMI sheet
[16] = cell line M14 (ME:M14), TMI sheet
[17] = cell line MALME-3M (ME:MALME-3M), TMI sheet
[18] = cell line MCF7 (BR:MCF7), TMI sheet
[19] = cell line MDA-MB-435 (ME:MDA-MB-435), TMI sheet
[20] = cell line MOLT-4 (LE:MOLT-4), TMI sheet
[21] = cell line NCI-H23 (LC:NCI-H23), TMI sheet
[22] = cell line NCI-H226 (LC:NCI-H226), TMI sheet
[23] = cell line RPMI-8226 (LE:RPMI-8226), TMI sheet
[24] = cell line SF-539 (CNS:SF-539), TMI sheet
[25] = cell line SK-MEL-5 (ME:SK-MEL-5), TMI sheet
[26] = cell line SK-MEL-28 (ME:SK-MEL-28), TMI sheet
[27] = cell line SNB-19 (CNS:SNB-19), TMI sheet
[28] = cell line SR (LE:SR), TMI sheet
[29] = cell line SW-620 (CO:SW-620), TMI sheet
[30] = cell line T-47D (BR:T-47D), TMI sheet
[31] = cell line U251 (CNS:U251), TMI sheet
[32] = cell line UACC-62 (ME:UACC-62), TMI sheet
[33] = cell line UACC-257 (ME:UACC-257), TMI sheet

COc1cc2cc(C(=O)N3CC(CCl)c4c3cc(OC(=O)N3CCN(C)C5CSSCC53)c3ccccc43)[nH]c2c(OC)c1OC (mixture of isomers) [Me-SS66T-CBI-TMI]
GI50 (TK-10, read-out: GI50): 130 nM
GI50 (U251, read-out: GI50): 11 nM
GI50 (UACC-62, read-out: GI50): 15 nM
GI50 (UACC-257, read-out: GI50): 24 nM
NCI-60 screening: Log(GI50) [1]: -7.92
NCI-60 screening: Log(RedIndex) [1]: 2.22
GI50 (cell line A549/ATCC (LC:A549/ATCC), TMI sheet, read-out: NCI-60 screening: Raw GI50): 12 nM
NCI-60 screening: Log(GI50) [2]: -7.81
NCI-60 screening: Log(RedIndex) [2]: 2.01
GI50 (cell line BT-549 (BR:BT-549), TMI sheet, read-out: NCI-60 screening: Raw GI50): 15 nM
NCI-60 screening: Log(GI50) [3]: -7.58
NCI-60 screening: Log(RedIndex) [3]: 1.58
NCI-60 screening: Log(GI50) [4]: -7.31
NCI-60 screening: Log(RedIndex) [4]: 1.44
NCI-60 screening: Log(GI50) [5]: -7.74
NCI-60 screening: Log(RedIndex) [5]: 2.03
GI50 (cell line EKVX (LC:EKVX), TMI sheet, read-out: NCI-60 screening: Raw GI50): 18 nM
NCI-60 screening: Log(GI50) [6]: -7.81
NCI-60 screening: Log(RedIndex) [6]: 1.99
GI50 (cell line HCC-2998 (CO:HCC-2998), TMI sheet, read-out: NCI-60 screening: Raw GI50): 15 nM
NCI-60 screening: Log(GI50) [7]: -7.66
NCI-60 screening: Log(RedIndex) [7]: 1.9
NCI-60 screening: Log(GI50) [8]: -7.74
NCI-60 screening: Log(RedIndex) [8]: 1.92
GI50 (cell line HCT-116 (CO:HCT-116), TMI sheet, read-out: NCI-60 screening: Raw GI50): 18 nM
NCI-60 screening: Log(GI50) [9]: -7.92
NCI-60 screening: Log(RedIndex) [9]: 1.8
GI50 (cell line HL-60(TB) (LE:HL-60(TB)), TMI sheet, read-out: NCI-60 screening: Raw GI50): 12 nM
NCI-60 screening: Log(GI50) [10]: -7.91
NCI-60 screening: Log(RedIndex) [10]: 1.68
GI50 (cell line HOP-62 (LC:HOP-62), TMI sheet, read-out: NCI-60 screening: Raw GI50): 12 nM
NCI-60 screening: Log(GI50) [11]: -7.57
NCI-60 screening: Log(RedIndex) [11]: 1.97
GI50 (cell line HOP-92 (LC:HOP-92), TMI sheet, read-out: NCI-60 screening: Raw GI50): 27 nM
NCI-60 screening: Log(GI50) [12]: -7.47
NCI-60 screening: Log(RedIndex) [12]: 1.65
GI50 (cell line HT29 (CO:HT29), TMI sheet, read-out: NCI-60 screening: Raw GI50): 34 nM
NCI-60 screening: Log(GI50) [13]: -7.61
NCI-60 screening: Log(RedIndex) [13]: 1.44
GI50 (cell line K-562 (LE:K-562), TMI sheet, read-out: NCI-60 screening: Raw GI50): 25 nM
NCI-60 screening: Log(GI50) [14]: -7.36
NCI-60 screening: Log(RedIndex) [14]: 1.68
NCI-60 screening: Log(GI50) [15]: -7.91
NCI-60 screening: Log(RedIndex) [15]: 1.96
GI50 (cell line LOX IMVI (ME:LOX IMVI), TMI sheet, read-out: NCI-60 screening: Raw GI50): 12 nM
NCI-60 screening: Log(GI50) [16]: -7.98
NCI-60 screening: Log(RedIndex) [16]: 2.16
GI50 (cell line M14 (ME:M14), TMI sheet, read-out: NCI-60 screening: Raw GI50): 10 nM
NCI-60 screening: Log(GI50) [17]: -7.86
NCI-60 screening: Log(RedIndex) [17]: 2.06
NCI-60 screening: Log(GI50) [18]: -8.28
NCI-60 screening: Log(RedIndex) [18]: 1.78
NCI-60 screening: Log(GI50) [19]: -7.56
NCI-60 screening: Log(RedIndex) [19]: 1.81
GI50 (cell line MDA-MB-435 (ME:MDA-MB-435), TMI sheet, read-out: NCI-60 screening: Raw GI50): 27 nM
NCI-60 screening: Log(GI50) [20]: -8
NCI-60 screening: Log(RedIndex) [20]: 1.78
NCI-60 screening: Log(GI50) [21]: -8.02
NCI-60 screening: Log(RedIndex) [21]: 1.69
GI50 (cell line NCI-H23 (LC:NCI-H23), TMI sheet, read-out: NCI-60 screening: Raw GI50): 9.5 nM
NCI-60 screening: Log(GI50) [22]: -7.02
NCI-60 screening: Log(RedIndex) [22]: 1.18
NCI-60 screening: Log(GI50) [23]: -7.47
NCI-60 screening: Log(RedIndex) [23]: 1.64
GI50 (cell line RPMI-8226 (LE:RPMI-8226), TMI sheet, read-out: NCI-60 screening: Raw GI50): 34 nM
NCI-60 screening: Log(GI50) (cell line SF-268 (CNS:SF-268), TMI sheet): -7.83
GI50 (cell line SF-268 (CNS:SF-268), TMI sheet, read-out: NCI-60 screening: Raw GI50): 15 nM
NCI-60 screening: Log(GI50) (cell line SF-295 (CNS:SF-295), TMI sheet): -8.01
NCI-60 screening: Log(GI50) [24]: -8
NCI-60 screening: Log(RedIndex) [24]: 2.12
GI50 (cell line SF-539 (CNS:SF-539), TMI sheet, read-out: NCI-60 screening: Raw GI50): 10 nM
NCI-60 screening: Log(GI50) [25]: -7.88
NCI-60 screening: Log(RedIndex) [25]: 2.09
NCI-60 screening: Log(GI50) [26]: -7.84
NCI-60 screening: Log(RedIndex) [26]: 2.39
GI50 (cell line SK-MEL-28 (ME:SK-MEL-28), TMI sheet, read-out: NCI-60 screening: Raw GI50): 15 nM
NCI-60 screening: Log(GI50) [27]: -7.79
NCI-60 screening: Log(RedIndex) [27]: 2.13
GI50 (cell line SNB-19 (CNS:SNB-19), TMI sheet, read-out: NCI-60 screening: Raw GI50): 16 nM
NCI-60 screening: Log(GI50) [28]: -8.4
NCI-60 screening: Log(RedIndex) [28]: 1.84
NCI-60 screening: Log(GI50) [29]: -7.24
NCI-60 screening: Log(RedIndex) [29]: 1.51
GI50 (cell line SW-620 (CO:SW-620), TMI sheet, read-out: NCI-60 screening: Raw GI50): 58 nM
NCI-60 screening: Log(GI50) [30]: -7.3
NCI-60 screening: Log(RedIndex) [30]: 1.58
NCI-60 screening: Log(GI50) [31]: -7.96
NCI-60 screening: Log(RedIndex) [31]: 2.14
NCI-60 screening: Log(GI50) [32]: -7.82
NCI-60 screening: Log(RedIndex) [32]: 2.01
GI50 (cell line UACC-62 (ME:UACC-62), TMI sheet, read-out: NCI-60 screening: Raw GI50): 15 nM
NCI-60 screening: Log(GI50) [33]: -7.62
NCI-60 screening: Log(RedIndex) [33]: 1.92
mean reductive index (mean over NCI cell lines, vs P-CC60): ca. 70
GI50 (read-out: NCI-60 screening: Raw GI50): 160 nM
